The Biogen ADME set (Fang et al. 2023)
In brackets after ≈: the same amount, converted by molar mass.

Details: for aqueous solubility: pH 6.8

SMILES | MDR1-MDCK efflux ratio | intrinsic clearance, human liver microsomes [mL/min/kg] | intrinsic clearance, rat liver microsomes [mL/min/kg] | aqueous solubility [µg/mL] | fraction unbound, human plasma | fraction unbound, rat plasma
Cc1nc2ncccn2c1C(=O)N(CC#Cc1ccccc1)C1CCCC1 | 1.94 | 63.7 | 4650 | 42.9 (≈ 120 µM) |  | 
Cc1cc(C)n2nc(C)c(C(=O)NCCc3nnc(C)s3)c2n1 | 6.5 | ≤ 4.74 | 33.1 |  |  | 
CO[C@@H](C(=O)Nc1cc2c(C)cc(=O)oc2cc1C)c1ccccc1 | 1.15 | 12.8 | 256 | 39.8 (≈ 118 µM) |  | 
COc1ccc(NC(=O)c2snnc2C)c(OC)c1 | 0.521 | 34.2 | 182 | 3.67 (≈ 13.1 µM) |  | 
O=C(Nc1ccc(-c2nnn[nH]2)cc1)c1cc(COc2ccc(F)cc2)on1 |  |  |  | 16.4 (≈ 43 µM) |  | 
CN1C(N)=N[C@](C)(c2cc(NC(=O)c3ccc(F)cn3)ccc2F)CS1(=O)=O | 93.4 | ≤ 4.74 | 82.3 |  | 0.363 | 0.31
NC(=O)Cn1cc(-c2ccc(F)cc2)cn1 | 0.87 | ≤ 4.74 | ≤ 10.7 | 28 (≈ 128 µM) |  | 
O=C(NC[C@]1(O)CCN(Cc2cscn2)C[C@H]1O)c1c[nH]cn1 |  | ≤ 4.74 | 42.6 |  |  | 
CC(=O)Nc1cccc(CN2CCCN(C(C)=O)c3ccccc32)c1 | 15.9 | 139 | 919 | 29.6 (≈ 87.8 µM) |  | 
Cc1ccc(NC(=O)CN2[C@H](Cc3ccccc3)C[C@]3(C)NC(=O)CCC[C@H]23)cc1F | 12.4 | 499 | 3320 |  | 0.00729 | 0.023
O=C(Nc1cccc2ncccc12)[C@H]1CCCN(S(=O)(=O)c2ccc(F)cc2)C1 |  | 35.2 | 698 |  |  | 
Cc1nsc(Nc2ccccc2)c1C#N | 0.367 | 300 | 782 |  |  | 
COc1ccc(CN(C)c2ncncc2Br)cc1O |  | 25.9 | 211 | 55.6 (≈ 172 µM) |  | 
Cc1cc(C)n2ncc(C(=O)Nc3cccc(C(=O)O)c3)c2n1 | 0.709 | ≤ 4.74 | ≤ 10.7 | 17.6 (≈ 56.7 µM) |  | 
CCCCCCNc1ncnc2[nH]ccc12 | 0.498 | 70.9 | 574 | 18.6 (≈ 85.1 µM) |  | 
Cc1nc(-c2cnn(C)c2-c2ccc(C(F)(F)F)cn2)c2c(N3CCC3)ncnn12 | 12.2 | 54.3 | 294 | 65.1 (≈ 157 µM) |  | 

SMILES | MDR1-MDCK efflux ratio | intrinsic clearance, human liver microsomes [mL/min/kg] | intrinsic clearance, rat liver microsomes [mL/min/kg] | aqueous solubility [µg/mL] | fraction unbound, human plasma | fraction unbound, rat plasma
Cc1ccc(C(=O)N(C)Cc2ccccn2)c(O)c1 |  | ≤ 4.74 | 479 |  |  | 
CN1CCC(OC(=O)Nc2ccc(Cl)c(Cl)c2)CC1 | 0.397 | 8.57 | 209 | 87.4 (≈ 288 µM) |  | 
CCNC(=O)c1ccc(CS(C)(=O)=O)cc1 | 2.62 | ≤ 4.74 | 20.6 | 40.9 (≈ 169 µM) |  | 
CC(C)c1nc2c(n1C)CCN(C(=O)c1cccc(C(F)(F)F)c1F)C2 | 8.01 | 32.7 | 238 | 60.8 (≈ 165 µM) |  | 
Cc1ccc(=O)n(CC2(O)CCN(Cc3ccc4ccccc4n3)CC2)n1 |  | ≤ 4.74 | 90.1 |  |  | 
NS(=O)(=O)N1CCN(Cc2c(F)cccc2N2CCCC2)CC1 | 1.75 | 24.2 | 1280 |  |  | 
Cc1n[nH]c(C)c1CCC(=O)N1CCOCC1 | 13.5 | ≤ 4.74 | ≤ 10.7 | 25.6 (≈ 108 µM) |  | 
CC(C)n1cnnc1SCOCc1ccccc1 | 0.711 | ≤ 4.74 | 219 |  |  | 
Cc1nc2ccc(C(=O)NCCCN3Cc4ccccc4C3)cc2[nH]1 |  |  |  | 52.4 (≈ 157 µM) |  | 
O=C(Nc1cncc(Cl)c1Cl)c1cccc(-n2cccn2)n1 | 0.09 | 99 | 149 |  |  | 
COc1cccc(C(=O)NCC(=O)Nc2cccc3c2CCCC3)c1 | 1.3 | 57.9 | 607 |  |  | 
Cn1c(C2CC2)nc2c1CCN(c1ncnc3ccsc13)C2 |  | 31.9 | 1090 | 50.4 (≈ 162 µM) | 0.173 | 0.156
Cc1nn(C)c2ncc(C(=O)Nc3ccc4c(c3)CCO4)cc12 | 0.571 | 8.12 | 48.2 | 22.9 (≈ 74.3 µM) |  | 
CC1(C)COCCN1Cc1cnn(-c2ccccc2)n1 | 0.545 | 10.7 | 1070 | 14.7 (≈ 54.1 µM) |  | 
Cc1ccc(-c2nnc(SCCn3cccn3)[nH]2)cc1 |  | 96.9 | 302 | 21.8 (≈ 76.4 µM) |  | 
CCOc1ccc(CN[C@@H]2CCC[C@H]2Cc2cc(C)no2)cc1OC | 2.55 | 61.6 | 2220 |  |  | 

The next lines start with the values.

MDR1-MDCK efflux ratio | intrinsic clearance, human liver microsomes [mL/min/kg] | intrinsic clearance, rat liver microsomes [mL/min/kg] | aqueous solubility [µg/mL] | fraction unbound, human plasma | fraction unbound, rat plasma | SMILES
0.483 | 76.5 | 410 | 1.35 (≈ 4.15 µM) |  |  | CN(C)c1ccc(-c2ccc(COCc3cccs3)cc2)nn1
2.33 | 187 | 1590 | 10.1 (≈ 30.5 µM) |  |  | Cn1c(CNC(=O)Cc2cccc3ccccc23)nc2ccccc21
133 | ≤ 4.74 | 742 |  |  |  | CC(=O)c1ccccc1-c1cccc(C(=O)NCCCN2CCCC2)c1
 |  |  | 22.8 (≈ 82.1 µM) |  |  | N#Cc1nncn1CC(=O)Nc1ccc2ccccc2c1
0.513 | 62.7 | 272 | 42.8 (≈ 145 µM) |  |  | Cc1nc(N2CCOc3ccccc3C2)c2cnn(C)c2n1
53.8 | 10.9 | 45.5 | 94.5 (≈ 191 µM) |  |  | COc1ccc(C(=O)C2CCN(CC(=O)N(Cc3nc4c(c(=O)[nH]3)COCC4)CC3CC3)CC2)cc1
38.3 |  |  | 0.9 (≈ 1.7 µM) |  |  | CS(=O)(=O)c1ccc(-c2nnc(/C=C/c3nnc(-c4ccc(C#N)cc4)o3)n2-c2ccccc2Cl)nc1
4.2 | 36.5 | 1050 | 58.3 (≈ 183 µM) |  |  | Cc1ccc(C)c2c(O)cc(CN3CC(c4ccccn4)C3)nc12
0.624 | 55.4 | 1050 | 30.4 (≈ 93.3 µM) |  |  | Clc1ccc(-c2ccc(CNCC3CCCO3)o2)c(Cl)c1 (configuration not stated)
8.19 | ≤ 4.74 | 31.2 | 51.4 (≈ 109 µM) |  |  | Cc1sc(C)c(C(=O)NC2(c3ccc(C(=O)O)cc3)CC2)c1Cc1ccc(C(F)(F)F)cc1
2.77 | 21.6 | 2910 |  |  |  | Cc1cccc(-c2cccc(C(=O)NCCC3(O)CCCC3)c2)n1
 | 6.88 | 764 | 38.1 (≈ 147 µM) |  |  | Cc1cccnc1NC(=O)CCc1ccc(F)cc1
 | 222 | 3560 |  |  |  | C[C@@H](Cn1nc2c(cc1=O)CCCCC2)NC(=O)CCc1ccccc1
92.6 | 50.9 | 3330 |  |  |  | O=C(Cn1nc(Cc2ccccc2)c2ccccc2c1=O)NCc1ncc[nH]1
21.2 | 6.43 | 149 |  |  |  | Cc1noc2ncnc(N3CCCN(C(=O)C4CC4)CC3)c12
8.23 | ≤ 4.74 |  |  | 0.535 |  | CCc1c[nH]c2ncnc(N3CCC(CN4CCN(C)CC4)CC3)c12
2.25 | 38.5 | 1610 |  |  |  | C#Cc1cccc(N(CC(=O)NC(N)=O)Cc2cccs2)c1
 | 34.6 | 1080 |  |  |  | O=C(Nc1c(F)cccc1Oc1ccccc1)c1cnccn1
 | 52.5 | 508 | 47.1 (≈ 184 µM) |  |  | Cc1ccc(OCC(=O)Nc2ccncc2)c(C)c1
1.6 | 12.4 | 497 | 87.3 (≈ 274 µM) |  |  | Cc1nn(C)c(C)c1NC(=O)CN1CCC2(CCCCC2)CC1
 | 47.2 | 1190 | 49.9 (≈ 131 µM) |  |  | O=C(C1CC1c1ccccc1F)N1CCC(n2c(=O)[nH]c3ccccc32)CC1 (configuration not stated)
0.621 | 25.9 | 75.6 | 39 (≈ 172 µM) |  |  | NC(=O)COc1ccccc1-c1ccccc1
 | 67.5 | 565 |  |  |  | Cn1nccc1C(=O)NCCc1cc2nc(-c3cccs3)ccn2n1
0.795 | ≤ 4.74 | 21.6 |  |  |  | Cc1nc(NCc2sccc2C)n(C)n1
61.1 | 20.4 | 101 | 40.1 (≈ 93.6 µM) |  |  | O=C(C1CC1)N1CC[C@@H](Cc2n[nH]c(=O)n2-c2ccc(-c3ccc4occc4c3)cc2)C1
